Measurements from the supplement of paper PMC3937590.
Blank lines part the entries; values can stand above or below the compound they belong to.

Tests used:
Assay in all cases: -log10 GI50 (growth inhibition 50%) (-log10(M)); higher = more potent growth inhibition
ZR751 = system: ZR751
How it was run: (§1)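 The reported figure is the negative logarithm of GI50, defined as the molar concentration that produces the set level of growth inhibition. The logarithm is base 10. It comes from a Gompertz curve fitted by nonlinear least squares to 72-hour luminescence data from breast cancer cell lines given nine doses in 1:5 serial dilution, in triplicate, with a time-zero plate as reference. A < qualifier marks values equal to the top dose.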

HCC1937 = system: HCC1937
How it was run: as §1

HCC1143 = system: HCC1143
How it was run: as §1

SUM159PT = system: SUM159PT
How it was run: as §1

MDAMB415 = system: MDAMB415
How it was run: as §1

UACC812 = system: UACC812
How it was run: as §1

HCC1187 = system: HCC1187
How it was run: as §1

AU565 = system: AU565
How it was run: as §1

SUM229PE = system: SUM229PE
How it was run: as §1

MCF7 = system: MCF7
How it was run: as §1

184A1 = system: 184A1
How it was run: as §1

BT549 = system: BT549
How it was run: as §1

HCC1569 = system: HCC1569
How it was run: as §1

ZR75B = system: ZR75B
How it was run: as §1

BT20 = system: BT20
How it was run: as §1

HCC1954 = system: HCC1954
How it was run: as §1

T47D = system: T47D
How it was run: as §1

HCC1395 = system: HCC1395
How it was run: as §1

184B5 = system: 184B5
How it was run: as §1

MCF10A = system: MCF10A
How it was run: as §1

MCF10F = system: MCF10F
How it was run: as §1

MDAMB175VII = system: MDAMB175VII
How it was run: as §1

BT483 = system: BT483
How it was run: as §1

HCC3153 = system: HCC3153
How it was run: as §1

BT474 = system: BT474
How it was run: as §1

SUM225CWN = system: SUM225CWN
How it was run: as §1

600MPE = system: 600MPE
How it was run: as §1

T47D_KBluc = system: T47D_KBluc
How it was run: as §1

MDAMB361 = system: MDAMB361
How it was run: as §1

HCC1428 = system: HCC1428
How it was run: as §1

HCC38 = system: HCC38
How it was run: as §1

CAMA1 = system: CAMA1
How it was run: as §1

HCC70 = system: HCC70
How it was run: as §1

HCC2185 = system: HCC2185
How it was run: as §1

HCC1419 = system: HCC1419
How it was run: as §1

SUM1315MO2 = system: SUM1315MO2
How it was run: as §1

MDAMB134VI = system: MDAMB134VI
How it was run: as §1

MDAMB157 = system: MDAMB157
How it was run: as §1

HCC202 = system: HCC202
How it was run: as §1

SKBR3 = system: SKBR3
How it was run: as §1

HCC1806 = system: HCC1806
How it was run: as §1

HS578T = system: HS578T
How it was run: as §1

MDAMB231 = system: MDAMB231
How it was run: as §1

SUM52PE = system: SUM52PE
How it was run: as §1

MDAMB453 = system: MDAMB453
How it was run: as §1

SUM185PE = system: SUM185PE
How it was run: as §1

MX1 = system: MX1
How it was run: as §1

HBL100 = system: HBL100
How it was run: as §1

MCF12A = system: MCF12A
How it was run: as §1

SUM149PT = system: SUM149PT
How it was run: as §1

LY2 = system: LY2
How it was run: as §1

- -log10 GI50 (HCC1937): < 4.78
- -log10 GI50 (HCC1143): < 4.78
- -log10 GI50 (MDAMB415): < 4.78
- -log10 GI50 (HCC1187): < 4.78
- -log10 GI50 (MCF7): < 4.78
- -log10 GI50 (BT549): < 4.78
- -log10 GI50 (HCC1569): 5.47
- -log10 GI50 (BT20): < 4.78
- -log10 GI50 (HCC1954): 5.58
- -log10 GI50 (T47D): 4.78
- -log10 GI50 (HCC1395): < 4.78
- -log10 GI50 (MDAMB175VII): 6.04
- -log10 GI50 (BT483): < 4.78
- -log10 GI50 (HCC3153): < 4.78
- -log10 GI50 (BT474): 6.4
- -log10 GI50 (T47D_KBluc): < 4.78
- -log10 GI50 (MDAMB361): 5.33
- -log10 GI50 (HCC1428): < 4.78
- -log10 GI50 (HCC38): < 4.78
- -log10 GI50 (HCC2185): < 4.78
- -log10 GI50 (HCC1419): 6.61
- -log10 GI50 (MDAMB134VI): < 4.78
- -log10 GI50 (MDAMB157): < 4.78
- -log10 GI50 (HCC202): 6.12
- -log10 GI50 (SKBR3): 6.39
- -log10 GI50 (HCC1806): < 4.78
- -log10 GI50 (MDAMB231): < 4.78
- -log10 GI50 (MDAMB453): 5.29
SMILES: CS(=O)(=O)CCNCc1ccc(-c2ccc3ncnc(Nc4ccc(OCc5cccc(F)c5)c(Cl)c4)c3c2)o1 [Lapatinib]
- -log10 GI50 (ZR751): < 4.78
- -log10 GI50 (SUM159PT): < 4.78
- -log10 GI50 (UACC812): 6.34
- -log10 GI50 (AU565): 6.4
- -log10 GI50 (SUM229PE): 4.86
- -log10 GI50 (184A1): 5.86
- -log10 GI50 (ZR75B): < 4.78
- -log10 GI50 (184B5): 5.24
- -log10 GI50 (MCF10A): < 4.78
- -log10 GI50 (MCF10F): 4.94
- -log10 GI50 (SUM225CWN): 6.16
- -log10 GI50 (600MPE): < 4.78
- -log10 GI50 (CAMA1): < 4.78
- -log10 GI50 (HCC70): 5.4
- -log10 GI50 (SUM1315MO2): 4.82
- -log10 GI50 (HS578T): < 4.78
- -log10 GI50 (SUM52PE): < 4.78
- -log10 GI50 (SUM185PE): < 4.78
- -log10 GI50 (MX1): 5.27

- -log10 GI50 (HCC1937): 3.76
- -log10 GI50 (HCC1143): 4.23
- -log10 GI50 (MDAMB415): 3.96
- -log10 GI50 (HCC1187): 4.49
- -log10 GI50 (MCF7): 4.19
- -log10 GI50 (BT549): 4.08
- -log10 GI50 (HCC1569): 4.27
- -log10 GI50 (BT20): 4.2
- -log10 GI50 (HCC1954): 4.29
- -log10 GI50 (T47D): 4.59
- -log10 GI50 (HCC1395): 4.32
- -log10 GI50 (MDAMB175VII): 4.46
- -log10 GI50 (BT483): 4.92
- -log10 GI50 (HCC3153): 4.31
- -log10 GI50 (BT474): 4.16
- -log10 GI50 (T47D_KBluc): 4.38
- -log10 GI50 (MDAMB361): 4.22
- -log10 GI50 (HCC1428): 4.34
- -log10 GI50 (HCC38): 4.07
- -log10 GI50 (HCC2185): 4.83
- -log10 GI50 (HCC1419): 4
- -log10 GI50 (MDAMB134VI): 4.54
- -log10 GI50 (MDAMB157): 3.78
- -log10 GI50 (HCC202): 4.14
- -log10 GI50 (SKBR3): 4.35
- -log10 GI50 (HCC1806): 4.23
- -log10 GI50 (MDAMB231): 3.84
- -log10 GI50 (MDAMB453): 3.09
SMILES: CNC(=O)c1cc(Oc2ccc(NC(=O)Nc3ccc(Cl)c(C(F)(F)F)c3)cc2)ccn1 [Sorafenib]
- -log10 GI50 (ZR751): 4.43
- -log10 GI50 (SUM159PT): 4.66
- -log10 GI50 (AU565): 3.94
- -log10 GI50 (SUM229PE): 5
- -log10 GI50 (184A1): 5.53
- -log10 GI50 (ZR75B): 3.16
- -log10 GI50 (184B5): 5.48
- -log10 GI50 (MCF10A): 4.31
- -log10 GI50 (MCF10F): 4.46
- -log10 GI50 (SUM225CWN): 4.6
- -log10 GI50 (600MPE): 4.36
- -log10 GI50 (HBL100): 4.33
- -log10 GI50 (CAMA1): 4.22
- -log10 GI50 (HCC70): 4.45
- -log10 GI50 (SUM1315MO2): 4.55
- -log10 GI50 (HS578T): < 3
- -log10 GI50 (SUM52PE): 5.77
- -log10 GI50 (SUM185PE): 5.83
- -log10 GI50 (MCF12A): 4.62
- -log10 GI50 (SUM149PT): 4.8

- -log10 GI50 (HCC1143): 3.9
- -log10 GI50 (MDAMB415): 3.96
- -log10 GI50 (HCC1187): 4.79
- -log10 GI50 (MCF7): 4.19
- -log10 GI50 (BT549): 3.83
- -log10 GI50 (HCC1569): 3.98
- -log10 GI50 (BT20): 3.74
- -log10 GI50 (HCC1954): 3.95
- -log10 GI50 (T47D): 3.97
- -log10 GI50 (HCC1395): 3.49
- -log10 GI50 (MDAMB175VII): 4.29
- -log10 GI50 (BT483): 4.23
- -log10 GI50 (HCC3153): 3.77
- -log10 GI50 (BT474): 4.27
- -log10 GI50 (T47D_KBluc): 3.99
- -log10 GI50 (MDAMB361): 4.26
- -log10 GI50 (HCC1428): 4.42
- -log10 GI50 (HCC38): 4.47
- -log10 GI50 (HCC2185): 4.28
- -log10 GI50 (HCC1419): 4.27
- -log10 GI50 (MDAMB134VI): 4.4
- -log10 GI50 (MDAMB157): 4.01
- -log10 GI50 (HCC202): 5.03
- -log10 GI50 (SKBR3): 4.32
- -log10 GI50 (HCC1806): 3.89
- -log10 GI50 (MDAMB231): 4.11
- -log10 GI50 (MDAMB453): 4.49
SMILES: O=C(CCCCCCC(=O)Nc1ccccc1)NO [Vorinostat]
- -log10 GI50 (ZR751): 3.77
- -log10 GI50 (SUM159PT): 3.92
- -log10 GI50 (UACC812): 4.37
- -log10 GI50 (AU565): 4.08
- -log10 GI50 (SUM229PE): 4.02
- -log10 GI50 (184A1): 3.87
- -log10 GI50 (ZR75B): 4.02
- -log10 GI50 (184B5): 3.84
- -log10 GI50 (MCF10A): 3.68
- -log10 GI50 (MCF10F): 3.08
- -log10 GI50 (SUM225CWN): 3.84
- -log10 GI50 (600MPE): 4.18
- -log10 GI50 (CAMA1): 4.13
- -log10 GI50 (HCC70): 4.46
- -log10 GI50 (LY2): 3.86
- -log10 GI50 (SUM1315MO2): 3.77
- -log10 GI50 (HS578T): 3.53
- -log10 GI50 (SUM52PE): 4.73
- -log10 GI50 (SUM185PE): 4.42
- -log10 GI50 (MCF12A): 3.77
- -log10 GI50 (MX1): 4.06
- -log10 GI50 (SUM149PT): 4.02
